Data reported in patent publication US10738067B2, “Inhibitors of cyclin-dependent kinase 7 (CDK7)” (Syros Pharmaceuticals, Inc., priority 2018, dated 2020).

Tests used:
HCC70 cells = experiment: HCC70 cell proliferation assay (CyQUANT Direct, 72 hours); type: cell-based; settings: Homo sapiens, inhibition of proliferation
Description: The HCC70 cell line was derived from human TNBC, and we tested representative compounds of the invention, at different concentrations (from 4 μM to 126.4 pM; 0.5 log serial dilutions), for their ability to inhibit the proliferation of those cells. More specifically, we tested the same compounds tested above for CDK7 selectivity (the structures of which are shown in FIG. 1), and we used the known CDK inhibitors dinaciclib (or […]) and triptolide as positive controls. The cells were grown in ATCC-formulated RPMI-1640 medium (ATCC 30-2001) supplemented with 10% fetal bovine serum (FBS), at 37° C. in a humidified chamber in the presence of 5% CO2. We conducted proliferation assays over a 72-hour time period using a CyQUANT® Direct Cell Proliferation Assay (Life Technologies, Chicago, Ill. USA) according to the manufacturer's directions and utilizing the reagents supplied with the kit.

in vivo = settings: NOD/SCID, mouse, oral
Description: (§2) In the TNBC model, Compound 101 was orally administered to tumor-bearing NOD/SCID mice at 10 mg/kg QD or 5 mg/kg BID for 21 days. In the SCLC and HGSOC models, Compound 101 was orally administered to tumor-bearing NOD/SCID mice at 3 mg/kg BID for 21 days. In the PDAC model, Compound 101 was orally administered to tumor-bearing NOD/SCID mice at 6 mg/kg QD. In the TNBC, SCLC, and HGSOC models, tumor volume was measured during the treatment period and for an additional 21 days after treatment ceased. […] The % regression was calculated as: (Mean TV Compound 101 @ EOT)/(Mean TV Compound 101 @Day 0)×100. The same calculations were used for end of study (day 42).
(§3) Dosing was initiated when tumors were 150-300 mm^3. Mice were treated with either Compound 101, QD (6 or 10 mg/kg once daily, by mouth) or BID (3 or 5 mg/kg twice daily, by mouth) over the course of 21 days, followed by 21 days of observation. TGI was calculated on the last day of dosing using the formula: TGI=(Vc1−Vt1)/(Vc0−Vt0), where Vc1 and Vt1 are the mean volumes of control and treated groups at the time of tumor extraction, while Vc0 and Vt0 are the same groups at the start of dosing.

[1] = Tolerability in tumor-bearing mice (PDX studies); settings: all once-daily doses tested
Description: as §2, §3

[2] = test system: palbociclib and fulvestrant double-resistant ER+BC PDX model (ST941); experiment: Tumor growth inhibition in palbociclib and fulvestrant double-resistant ER+BC PDX model ST941; type: in vivo, Mice; settings: fulvestrant 2.5 mg/kg once weekly SC; for anti-tumor activity (in words): palbociclib 50 mpk QD PO
Description: (§1) Tumor growth inhibition was evaluated in estrogen receptor-positive breast cancer (ER+BC) PDX models selected in vivo for resistance to the CDK4/6 inhibitor palbociclib (ST1799, n=1) or resistance to both palbociclib and fulvestrant (ST941, n=1). Dosing was initiated when tumors were 100-200 mm^3.

[3] = test system: 12 PDX models representing SCLC, TNBC and HGSOC; experiment: Tumor growth inhibition in 12 PDX models (SCLC, TNBC, HGSOC); type: in vivo, Mice
Description: We evaluated TGI in 12 different PDX models (Crown Biosciences) in various tumor indications with PDXs representing SCLC (n=5; LU5180, LU5178, LU5192, LU5173, LU5210), TNBC (n=4; BR5010, BR1458, BR5399, BR10014) and HGSOC (n=3; OV15398, OV5392, OV15631). Dosing was initiated when tumors were 150-300 mm^3. […] TGI was calculated on the last day of dosing using the formula: TGI=(Vc1−Vt1)/(Vc0−Vt0), where Vc1 and Vt1 are the mean volumes of control and treated groups at the time of tumor extraction, while Vc0 and Vt0 are the same groups at the start of dosing.

[4] = test system: palbociclib-resistant ER+BC PDX (ST1799); experiment: Tumor growth inhibition in palbociclib-resistant ER+BC PDX model ST1799; type: in vivo, Mice; settings: last day of 28 days dosing, Compound 101 6 mg/kg QD PO, fulvestrant 2.5 mg/kg once weekly SC, palbociclib 50 mpk QD PO
Description: as §1

[5] = test system: PDX models BR5010 (TNBC), LU5178 (SCLC), OV15398 (HGSOC); experiment: Tumor growth inhibition in TNBC, SCLC and HGSOC PDX models; type: in vivo, NOD/SCID mice
[6] = test system: ST390 (modeling pancreatic ductal adenocarcinoma (PDAC)); experiment: Tumor growth inhibition in PDAC PDX model ST390; type: in vivo, NOD/SCID mice
Description: as §2

SMILES: C[C@H]1CC[C@H](Nc2ncc(C(F)(F)F)c(-c3c[nH]c4c(P(C)(C)=O)c(C#N)ccc34)n2)CN1 [Compound 100, 7-dimethylphosphoryl-3-[2-[[(3S, 6S)-6-methyl-3-piper-idyl]amino]-5-(trifluoromethyl)pyrimidin-4-yl]-1H-indole-6-carbonitrile]
- EC50 (HCC70 cells): 0.98 nM

SMILES: CC1(C)CC[C@H](Nc2ncc(C(F)(F)F)c(-c3c[nH]c4c(P(C)(C)=O)c(C#N)ccc34)n2)CN1 [Compound 101, (S)-7-(dimethylphosphoryl)-3-(2-((6,6-dimethylpiperidin-3-yl)amino)-5-(trifluoromethyl)pyrimidin-4-yl)-1H-indole-6-carbonitrile]
- MTD at 21 days (in vivo): > 10 mg/kg
- body weight loss (tolerability) [1]: no evident body weight loss
- Tumor growth inhibition (TGI) ([2]; last day of 28 days dosing, Compound 101 6 mg/kg QD PO): 33%
- TGI at the end of the 21-day dosing period ([3]; all 12 PDX models, 6 or 10 mg/kg QD or 3 or 5 mg/kg BID, by mouth): at least 50%
- tumor regrowth after treatment discontinuation ([3]; subset of models (7/12), 21 days after treatment discontinuation): no evidence of tumor regrowth
- TGI of deep responses (TGI or regression) ([3]; subset of models (58%, 7/12)): > 95%
- Tumor growth inhibition (TGI) [4]: 83%
- EC50 (HCC70 cells): 5.6 nM
- TGI (in words) ([5]; TNBC 10 mg/kg QD or 5 mg/kg BID, SCLC and HGSOC 3 mg/kg BID, oral, 21 days, plus 21 days observation): deep and sustained TGI, including regressions
- transcriptional responses in xenograft tissue ([5]; observed within 4 hours of dosing, sustained for 24 hours): Dose-dependent transcriptional responses
- Tumor growth inhibition (TGI) ([6]; 6 mg/kg QD PO, over ~28 days, sub-MTD dose): 100%
- tumor volume ([6]; day 21, 6 mg/kg QD, PO): about 250 mm^3

SMILES: CC1(C)CNC[C@@H](Nc2ncc(C(F)(F)F)c(-c3c[nH]c4c(P(C)(C)=O)c(C#N)ccc34)n2)C1 [Compound 102, (S)-7-(dimethylphosphoryl)-3-(2-((5,5-dimethylpiperidin-3-yl)amino)-5-(trifluoromethyl)pyrimidin-4-yl)-1H-indole-6-carbonitrile]
- EC50 (HCC70 cells): 2.1 nM

SMILES: C[C@]12CC[C@@H]3c4ccc(O)cc4C[C@@H](CCCCCCCCC[S+]([O-])CCCC(F)(F)C(F)(F)F)[C@H]3[C@@H]1CC[C@@H]2O (stereo partly drawn) [fulvestrant]
- anti-tumor activity (in words) [2]: no activity
- Tumor growth inhibition (TGI) [4]: 60%

SMILES: CC(=O)c1c(C)c2cnc(Nc3ccc(N4CCNCC4)cn3)nc2n(C2CCCC2)c1=O [palbociclib]
- anti-tumor activity (in words) [2]: no activity
- Tumor growth inhibition (TGI) [4]: 21%
